# Test results published in PubChem BioAssay (NCI).
#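 Cultured in 96-well plates, cells were exposed to test compound for 48 hours across five concentrations. Abbreviation: GI50, concentration required for 50% inhibition of growth. At the TGI there is no net growth.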
# How the values were obtained:
# Assay in all cases: NCI-60 cell line screen, 48 h
# SW-620 colon = test system: SW-620 colon
# SR leukemia = test system: SR leukemia
# RXF 393 renal = test system: RXF 393 renal
# NCI-H226 lung = test system: NCI-H226 lung
# MDA-MB-231 breast = test system: MDA-MB-231 breast
# DU-145 prostate = test system: DU-145 prostate
# U251 CNS = test system: U251 CNS
# SF-539 CNS = test system: SF-539 CNS
# SF-295 CNS = test system: SF-295 CNS
# RPMI-8226 leukemia = test system: RPMI-8226 leukemia
# MALME-3M melanoma = test system: MALME-3M melanoma
# NCI-H522 lung = test system: NCI-H522 lung
# OVCAR-3 ovarian = test system: OVCAR-3 ovarian
# EKVX NSCLC = test system: EKVX NSCLC
# HCC-2998 colon = test system: HCC-2998 colon
# COLO 205 colon = test system: COLO 205 colon
# OVCAR-8 ovarian = test system: OVCAR-8 ovarian
# SK-MEL-5 melanoma = test system: SK-MEL-5 melanoma
# ACHN renal = test system: ACHN renal
# MDA-MB-435 = test system: MDA-MB-435
# TK-10 renal = test system: TK-10 renal
# M14 melanoma = test system: M14 melanoma
# HCT-15 colon = test system: HCT-15 colon
# SN12C renal = test system: SN12C renal
# SNB-19 CNS = test system: SNB-19 CNS
# UO-31 renal = test system: UO-31 renal
# OVCAR-4 ovarian = test system: OVCAR-4 ovarian
# HOP-92 NSCLC = test system: HOP-92 NSCLC
# PC-3 prostate = test system: PC-3 prostate
# LOX IMVI melanoma = test system: LOX IMVI melanoma
# HT29 colon = test system: HT29 colon
# KM12 colon = test system: KM12 colon
# NCI-H23 lung = test system: NCI-H23 lung
# NCI-H460 lung = test system: NCI-H460 lung
# MOLT-4 leukemia = test system: MOLT-4 leukemia
# SK-MEL-28 melanoma = test system: SK-MEL-28 melanoma
# UACC-62 melanoma = test system: UACC-62 melanoma
# CCRF-CEM leukemia = test system: CCRF-CEM leukemia
# T-47D breast = test system: T-47D breast
# K-562 leukemia = test system: K-562 leukemia
# IGROV1 ovarian = test system: IGROV1 ovarian
# MCF7 breast = test system: MCF7 breast
# 786-0 renal = test system: 786-0 renal
# SF-268 CNS = test system: SF-268 CNS
# HS 578T breast = test system: HS 578T breast
# A498 renal = test system: A498 renal
# HOP-62 NSCLC = test system: HOP-62 NSCLC
# A549 NSCLC = test system: A549 NSCLC
# UACC-257 melanoma = test system: UACC-257 melanoma
# NCI/ADR-RES ovarian = test system: NCI/ADR-RES ovarian
# SNB-75 CNS = test system: SNB-75 CNS
# HCT-116 colon = test system: HCT-116 colon
# HL-60(TB) leukemia = test system: HL-60(TB) leukemia
# SK-OV-3 ovarian = test system: SK-OV-3 ovarian
# OVCAR-5 ovarian = test system: OVCAR-5 ovarian
# CAKI-1 renal = test system: CAKI-1 renal
compound,measurement,setting,value
c1ccc(CN=C(NCc2ccccc2)NCc2ccccc2)cc1,GI50,SW-620 colon,4.42 µM
same,TGI,SW-620 colon,17.9 µM
same,GI50,SR leukemia,6.21 µM
same,TGI,SR leukemia,29.5 µM
same,GI50,RXF 393 renal,14.3 µM
same,TGI,RXF 393 renal,28.2 µM
same,GI50,NCI-H226 lung,6.04 µM
same,TGI,NCI-H226 lung,21.4 µM
same,GI50,MDA-MB-231 breast,10.6 µM
same,TGI,MDA-MB-231 breast,25.4 µM
same,GI50,DU-145 prostate,5.38 µM
same,TGI,DU-145 prostate,19.4 µM
same,GI50,U251 CNS,10.2 µM
same,TGI,U251 CNS,23.5 µM
same,GI50,SF-539 CNS,11.9 µM
same,TGI,SF-539 CNS,27.5 µM
same,GI50,SF-295 CNS,1.21 µM
same,TGI,SF-295 CNS,6.49 µM
same,GI50,RPMI-8226 leukemia,4.7 µM
same,TGI,RPMI-8226 leukemia,24.4 µM
same,GI50,MALME-3M melanoma,3.56 µM
same,TGI,MALME-3M melanoma,17.1 µM
same,GI50,NCI-H522 lung,8.35 µM
same,TGI,NCI-H522 lung,21.3 µM
same,GI50,OVCAR-3 ovarian,3.11 µM
same,TGI,OVCAR-3 ovarian,14.9 µM
same,GI50,EKVX NSCLC,1.85 µM
same,TGI,EKVX NSCLC,7.81 µM
same,GI50,HCC-2998 colon,3.65 µM
same,TGI,HCC-2998 colon,12.9 µM
same,GI50,COLO 205 colon,1.98 µM
same,TGI,COLO 205 colon,4.03 µM
same,GI50,OVCAR-8 ovarian,6.44 µM
same,TGI,OVCAR-8 ovarian,21.8 µM
same,GI50,SK-MEL-5 melanoma,3.95 µM
same,TGI,SK-MEL-5 melanoma,14.6 µM
same,GI50,ACHN renal,6.03 µM
same,TGI,ACHN renal,21.1 µM
same,GI50,MDA-MB-435,3.21 µM
same,TGI,MDA-MB-435,15.1 µM
same,GI50,TK-10 renal,10.7 µM
same,TGI,TK-10 renal,27.3 µM
same,GI50,M14 melanoma,4.18 µM
same,TGI,M14 melanoma,17.3 µM
same,GI50,HCT-15 colon,14.3 µM
same,TGI,HCT-15 colon,> 100 µM
same,GI50,SN12C renal,6.92 µM
same,TGI,SN12C renal,24.1 µM
same,GI50,SNB-19 CNS,11 µM
same,TGI,SNB-19 CNS,25 µM
same,GI50,UO-31 renal,3.07 µM
same,TGI,UO-31 renal,15.2 µM
same,GI50,OVCAR-4 ovarian,6.23 µM
same,TGI,OVCAR-4 ovarian,36.8 µM
same,GI50,HOP-92 NSCLC,3.18 µM
same,TGI,HOP-92 NSCLC,12.7 µM
same,GI50,PC-3 prostate,2.76 µM
same,TGI,PC-3 prostate,12.9 µM
same,GI50,LOX IMVI melanoma,5.52 µM
same,TGI,LOX IMVI melanoma,19.3 µM
same,GI50,HT29 colon,5.58 µM
same,TGI,HT29 colon,19.8 µM
same,GI50,KM12 colon,3.36 µM
same,TGI,KM12 colon,13.1 µM
same,GI50,NCI-H23 lung,4.66 µM
same,TGI,NCI-H23 lung,17.8 µM
same,GI50,NCI-H460 lung,5.1 µM
same,TGI,NCI-H460 lung,19.5 µM
same,GI50,MOLT-4 leukemia,3.77 µM
same,TGI,MOLT-4 leukemia,19.1 µM
same,GI50,SK-MEL-28 melanoma,14.8 µM
same,TGI,SK-MEL-28 melanoma,29.2 µM
same,GI50,UACC-62 melanoma,10.1 µM
same,TGI,UACC-62 melanoma,22.6 µM
same,GI50,CCRF-CEM leukemia,10.2 µM
same,TGI,CCRF-CEM leukemia,62.5 µM
same,GI50,T-47D breast,4.7 µM
same,TGI,T-47D breast,17 µM
same,GI50,K-562 leukemia,2.6 µM
same,TGI,K-562 leukemia,11.9 µM
same,GI50,IGROV1 ovarian,1.66 µM
same,TGI,IGROV1 ovarian,9.51 µM
same,GI50,MCF7 breast,6.37 µM
same,TGI,MCF7 breast,19.6 µM
same,GI50,786-0 renal,11.4 µM
same,TGI,786-0 renal,25.7 µM
same,GI50,SF-268 CNS,4.32 µM
same,TGI,SF-268 CNS,18.5 µM
same,GI50,HS 578T breast,10.3 µM
same,TGI,HS 578T breast,27.3 µM
same,GI50,A498 renal,2.2 µM
same,TGI,A498 renal,14.7 µM
same,GI50,HOP-62 NSCLC,12.7 µM
same,TGI,HOP-62 NSCLC,25.9 µM
same,GI50,A549 NSCLC,11.2 µM
same,TGI,A549 NSCLC,25.3 µM
same,GI50,UACC-257 melanoma,3.23 µM
same,TGI,UACC-257 melanoma,11.1 µM
same,GI50,NCI/ADR-RES ovarian,30.6 µM
same,TGI,NCI/ADR-RES ovarian,> 100 µM
same,GI50,SNB-75 CNS,2.37 µM
same,TGI,SNB-75 CNS,13 µM
same,GI50,HCT-116 colon,3.97 µM
same,TGI,HCT-116 colon,17.3 µM
same,GI50,HL-60(TB) leukemia,2.69 µM
same,TGI,HL-60(TB) leukemia,13.2 µM
same,GI50,SK-OV-3 ovarian,10.9 µM
same,TGI,SK-OV-3 ovarian,23.6 µM
same,GI50,OVCAR-5 ovarian,10.1 µM
same,TGI,OVCAR-5 ovarian,24.5 µM
same,GI50,CAKI-1 renal,11.1 µM
same,TGI,CAKI-1 renal,26.7 µM
